Source: patent US9994535B2, “Desferrithiocin polyether analogues” (University of Florida Research Foundation, Inc., priority 2005, dated 2018)
Values belong to the molecule of their own block, whether it stands above or below them.

Key:
[1] = Tissue and plasma concentrations upon subcutaneous administration to rats; assay type: in vivo; details: rat, sc 300 μmol/kg
Procedure: Tissue Distribution of a Polyether-Substituted (S)-4′-Hydroxydesazadesferrithiocin Analogue [(S)-4′-(HO)-DADFT-PE] Upon Subcutaneous Administration to Rats
A measurement was made assessing (S)-4′-(HO)-DADFT-PE and (S)-4′-(HO)-DADFT tissue and plasma concentrations upon subcutaneous administration at times from 2-8 h post dosing. The rats were given this compound subcutaneously at 300 μmol/kg. The tissue and plasma level were obtained as described in Bergeron et al. J Med Chem. 48:821-831 (2005), the entire contents of which are incorporated herein by reference.

[2] = Iron clearing efficiency in non-iron overloaded, bile duct cannulated rat model; assay type: in vivo; details: for Efficiency (%) (iron clearing efficiency): 300 μmol/kg, 24 hour iron excretion, 2:1 ligand-iron complex; for Iron clearing efficiency compared with parent drug (S)-4-(HO)-DADFT: same micromole per kilogram dose
Procedure: Iron Clearing Efficiency of Iron Chelators in a Non-Iron Overloaded, Bile Duct Cannulated Rat Model
Studies were performed in the non-iron overloaded, bile duct cannulated rodent model with the compounds shown below.
Briefly, male Sprague-Dawley rats averaging 450 g were housed in Nalgene plastic metabolic cages during the experimental period and given free access to water. The animals were anesthetized using sodium pentobarbital (55 mg/kg) administered intraperitoneally. The bile duct was cannulated using 22-gauge polyethylene tubing. The cannula was inserted into the duct about 1 cm from the duodenum and tied snugly in place. After threading through the shoulder, the cannula was passed from the rat to the swivel inside a metal torque-transmitting tether, which was attached to a rodent jacket around the animal's chest. The cannula was directed from the rat to a Gilson microfraction collector (Middleton, Wis.) by a fluid swivel mounted above the metabolic cage. Three hour bile samples were continuously collected for a minimum of 24 hours up to 48 hours. However, the efficiency calculations are based on the 24 hour iron excretion. The efficiency of each chelator was calculated on the basis of a 2:1 ligand-iron complex. The efficiencies in the rodent model were calculated by subtracting the iron excretion of control animals from the iron excretion of treated animals. This number was then divided by the theoretical output; the result is expressed as a percentage (Bergeron, R. J., et al., J. Med Chem. 42:95-108 (1999) the entire contents of which are incorporated herein by reference). The urine sample was taken at 24 hours and handled as previously described in Bergeron, R. J., et al., J. Med. Chem. 34:2072-2078 (1991), the entire contents of which are incorporated herein by reference.

Brain concentration of administered compound ([1]; 2 h): 13.2 ± 4.8 nmol/g wet wt
Brain concentration of metabolite of administered compound ([1]; 2 h): <2.4 nmol/g wet wt
Brain concentration of administered compound ([1]; 4 h): 7.4 ± 0.7 nmol/g wet wt
Brain concentration of metabolite of administered compound ([1]; 4 h): <2.4 nmol/g wet wt
Brain concentration of administered compound ([1]; 6 h): 4.8 ± 3.1 nmol/g wet wt
Brain concentration of metabolite of administered compound ([1]; 6 h): <2.4 nmol/g wet wt
Brain concentration of administered compound ([1]; 8 h): <1.6 ± 0.0 nmol/g wet wt
Brain concentration of metabolite of administered compound ([1]; 8 h): <2.4 nmol/g wet wt
Heart concentration of administered compound ([1]; 2 h): 66.2 ± 2.2 nmol/g wet wt
Heart concentration of metabolite of administered compound ([1]; 2 h): 6.4 ± 0.6 nmol/g wet wt
Heart concentration of administered compound ([1]; 4 h): 32.6 ± 3.6 nmol/g wet wt
Heart concentration of metabolite of administered compound ([1]; 4 h): <4.8 nmol/g wet wt
Heart concentration of administered compound ([1]; 6 h): 28.2 ± 0.7 nmol/g wet wt
Heart concentration of metabolite of administered compound ([1]; 6 h): <4.8 nmol/g wet wt
Heart concentration of administered compound ([1]; 8 h): 26.3 ± 9.7 nmol/g wet wt
Heart concentration of metabolite of administered compound ([1]; 8 h): <4.8 nmol/g wet wt
Kidney concentration of administered compound ([1]; 2 h): 97.5 ± 24.5 nmol/g wet wt
Kidney concentration of metabolite of administered compound ([1]; 2 h): 49.9 ± 21.3 nmol/g wet wt
Kidney concentration of administered compound ([1]; 4 h): 57.0 ± 15.5 nmol/g wet wt
Kidney concentration of metabolite of administered compound ([1]; 4 h): 23.2 ± 1.7 nmol/g wet wt
Kidney concentration of administered compound ([1]; 6 h): 67.2 ± 9.9 nmol/g wet wt
Kidney concentration of metabolite of administered compound ([1]; 6 h): 21.7 ± 6.2 nmol/g wet wt
Kidney concentration of administered compound ([1]; 8 h): 67.4 ± 19.9 nmol/g wet wt
Kidney concentration of metabolite of administered compound ([1]; 8 h): 25.3 ± 2.5 nmol/g wet wt
Liver concentration of administered compound ([1]; 2 h): 111.0 ± 14.0 nmol/g wet wt
Liver concentration of metabolite of administered compound ([1]; 2 h): 43.5 ± 4.5 nmol/g wet wt
Liver concentration of administered compound ([1]; 4 h): 73.8 ± 10.8 nmol/g wet wt
Liver concentration of metabolite of administered compound ([1]; 4 h): 24.6 ± 1.1 nmol/g wet wt
Liver concentration of administered compound ([1]; 6 h): 80.9 ± 10.7 nmol/g wet wt
Liver concentration of metabolite of administered compound ([1]; 6 h): 26.9 ± 5.1 nmol/g wet wt
Liver concentration of administered compound ([1]; 8 h): 81.4 ± 15.9 nmol/g wet wt
Liver concentration of metabolite of administered compound ([1]; 8 h): 25.0 ± 3.6 nmol/g wet wt
Pancreas concentration of administered compound ([1]; 2 h): 37.1 ± 3.8 nmol/g wet wt
Pancreas concentration of metabolite of administered compound ([1]; 2 h): 1.3 ± 2.2 nmol/g wet wt
Pancreas concentration of administered compound ([1]; 4 h): 19.4 ± 1.4 nmol/g wet wt
Pancreas concentration of metabolite of administered compound ([1]; 4 h): 0.0 ± 0.0 nmol/g wet wt
Pancreas concentration of administered compound ([1]; 6 h): 16.5 ± 4.5 nmol/g wet wt
Pancreas concentration of metabolite of administered compound ([1]; 6 h): 0.0 ± 0.0 nmol/g wet wt
Pancreas concentration of administered compound ([1]; 8 h): 9.7 ± 0.7 nmol/g wet wt
Pancreas concentration of metabolite of administered compound ([1]; 8 h): 0.0 ± 0.0 nmol/g wet wt
Plasma concentration of administered compound ([1]; plasma, 2 h): 478.8 ± 36.8 µM
Plasma concentration of metabolite of administered compound ([1]; plasma, 2 h): 8.4 ± 1.8 µM
Plasma concentration of administered compound ([1]; plasma, 4 h): 236.3 ± 42.0 µM
Plasma concentration of metabolite of administered compound ([1]; plasma, 4 h): 4.2 ± 1.0 µM
Plasma concentration of administered compound ([1]; plasma, 6 h): 142.5 ± 29.5 µM
Plasma concentration of metabolite of administered compound ([1]; plasma, 6 h): 1.8 ± 0.6 µM
Plasma concentration of administered compound ([1]; plasma, 8 h): 79.6 ± 13.3 µM
Plasma concentration of metabolite of administered compound ([1]; plasma, 8 h): 0.0 ± 0.0 µM
Compound: COc1ccc(C2=N[C@@](C)(C(=O)O)CS2)c(O)c1 [(S)-4′-(CH3O)-DADFT]
Efficiency (%) (iron clearing efficiency) ([2]; p.o.): 6.6 ± 2.8%

Compound: COCCOCCOCCOc1ccc(C2=N[C@@](C)(C(=O)OC(C)C)CS2)c(O)c1 [(S)-4′-(HO)-DADFT-PE iPrE]
Efficiency (%) (iron clearing efficiency) ([2]; p.o.): 9.2 ± 4.4%
Efficiency (%) (iron clearing efficiency) ([2]; s.c.): 25.9 ± 9.2%
Iron clearing efficiency of isopropylester vs ethyl ester ([2]; both administered subcutaneously): significantly more efficient
Iron clearing efficiency compared with parent drug (S)-4-(HO)-DADFT [2]: work better than the parent drug

Compound: CC(C)OC(=O)[C@@]1(C)CSC(c2ccc(O)cc2O)=N1 [(S)-4′-(HO)-DADFT-iPrE]
Efficiency (%) (iron clearing efficiency) ([2]; s.c.): 1.98 ± 0.91%

Brain concentration of administered compound ([1]; 2 h): 0 ± 0 nmol/g wet wt
Brain concentration of administered compound ([1]; 4 h): 0 ± 0 nmol/g wet wt
Brain concentration of administered compound ([1]; 6 h): 0 ± 0 nmol/g wet wt
Brain concentration of administered compound ([1]; 8 h): 0 ± 0 nmol/g wet wt
Heart concentration of administered compound ([1]; 2 h): 4.6 ± 3^ nmol/g wet wt
Heart concentration of administered compound ([1]; 4 h): 0 ± 0 nmol/g wet wt
Heart concentration of administered compound ([1]; 6 h): 0 ± 0 nmol/g wet wt
Heart concentration of administered compound ([1]; 8 h): 0 ± 0 nmol/g wet wt
Kidney concentration of administered compound ([1]; 2 h): 97.1 ± .50 nmol/g wet wt
Kidney concentration of administered compound ([1]; 4 h): 26.6 ± 7.1 nmol/g wet wt
Kidney concentration of administered compound ([1]; 6 h): 13.0 ± 8.0 nmol/g wet wt
Kidney concentration of administered compound ([1]; 8 h): 8.8 ± 2.9 nmol/g wet wt
Liver concentration of administered compound ([1]; 2 h): 48.3 ± 20.3 nmol/g wet wt
Liver concentration of administered compound ([1]; 4 h): 25.0 ± 3.9 nmol/g wet wt
Liver concentration of administered compound ([1]; 6 h): 19.3 ± 2.0 nmol/g wet wt
Liver concentration of administered compound ([1]; 8 h): 12.3 ± 0.8 nmol/g wet wt
Pancreas concentration of administered compound ([1]; 2 h): 5.8 ± 1.3 nmol/g wet wt
Pancreas concentration of administered compound ([1]; 4 h): 0 ± 0 nmol/g wet wt
Pancreas concentration of administered compound ([1]; 6 h): 0 ± 0 nmol/g wet wt
Pancreas concentration of administered compound ([1]; 8 h): 0 ± 0 nmol/g wet wt
concentration at 2 h ([1]; plasma, 2 h, read-out: Plasma concentration of administered compound): 13.1 ± 2.7 µM
Plasma concentration of administered compound ([1]; plasma, 4 h): 2 ± 0.4 µM
concentration at 6 h ([1]; plasma, 6 h, read-out: Plasma concentration of administered compound): 0 nM
concentration at 8 h ([1]; plasma, 8 h, read-out: Plasma concentration of administered compound): 0 nM
Compound: C[C@]1(C(=O)O)CSC(c2ccc(O)cc2O)=N1 [(S)-4′-(HO)-DADFT, (S)-2-(2,4-dihydroxyphenyl)-4,5-dihydro-4-methyl-4-thiazolecarboxylic acid]
Efficiency (%) (iron clearing efficiency) ([2]; p.o.): 1.0 ± 0.4%
Efficiency (%) (iron clearing efficiency) ([2]; s.c.): 1.1 ± 0.6%

Compound: CCOC(=O)[C@@]1(C)CSC(c2ccc(OCCOCCOCCOC)cc2O)=N1 [(S)-4′-(HO)-DADFT-PE EE]
Efficiency (%) (iron clearing efficiency) ([2]; s.c.): 11.4 ± 0.8%
Iron clearing efficiency compared with parent drug (S)-4-(HO)-DADFT [2]: work better than the parent drug
